Values after ≈ are worked out from the molar mass of the structure shown. Like-named read-outs stand apart in the source and are kept apart here.
How the values were obtained:
[1] = test system: MRSA isolate ATCC BAA-1556; experiment: MIC, CLSI-guided broth susceptibility testing (Example 10); assay type: cell-based, Staphylococcus aureus
Procedure: (§1) MIC Testing: Glycopeptide compounds were dissolved in 100% DMSO. In vitro activities were determined using CLSI-guided broth susceptibility testing to measure drug minimum inhibitory concentrations (MICs) of the compounds against the quality control strain ATCC 29213 (MSSA) and the MRSA isolate ATCC BAA-1556. Glycopeptides are defined as compounds of Formula (I), and their respective R^1, R^2, R^3 and R^4 groups. X is —O— for each compound in Table 2.

[2] = test system: quality control strain ATCC 29213 (MSSA); experiment: as above; assay type: cell-based, Staphylococcus aureus
Procedure: as §1

[3] = test system: Staphylococcus aureus; experiment: microbe, parasite or virus in culture; assay type: cell-based
[4] = test system: Enterococci; assay type: cell-based
[5] = test system: Streptococci; experiment: Broth microdilution MIC, Streptococci (Example 11, Table 7); assay type: cell-based
[6] = test system: Clostridium difficile; experiment: Broth microdilution MIC, C. difficile, anaerobic, supplemented Brucella Broth (Example 11, Table 7); assay type: cell-based
[7] = test system: S. epidermidis (CoNS); experiment: Broth microdilution MIC, S. epidermidis (CoNS) (Table 7); assay type: cell-based
[8] = test system: S. lugdenensis (CoNS); experiment: Broth microdilution MIC, S. lugdenensis (CoNS) (Table 7); assay type: cell-based; settings: S. lugdenensis (CoNS) MMX 8724
[9] = test system: S. haemolyticus (CoNS); experiment: Broth microdilution MIC, S. haemolyticus (CoNS) (Table 7); assay type: cell-based; settings: S. haemolyticus (CoNS) MMX 529 ATCC 29970
[10] = test system: S. hominis (CoNS); experiment: Broth microdilution MIC, S. hominis (CoNS) (Table 7); assay type: cell-based; settings: S. hominis (CoNS) MMX 667 ATCC 27844
[11] = test system: C. perfringens; assay type: cell-based; settings: C. perfringens MMX 8351 ATCC 13124
[12] = test system: P. micros; experiment: Broth microdilution MIC, P. micros (Table 7); assay type: cell-based; settings: P. micros MMX 3546
[13] = test system: P. anaerobius; experiment: Broth microdilution MIC, P. anaerobius (Table 7); assay type: cell-based; settings: P. anaerobius MMX 1208 ATCC 27337
[14] = test system: P. acnes; experiment: Broth microdilution MIC, P. acnes (Table 7); assay type: cell-based

`CCCCCCCCCCNCCN[C@@]1(C)C[C@H](O[C@H]2[C@H](Oc3c4cc5cc3Oc3ccc(cc3Cl)[C@@H](O)[C@@H](NC(=O)[C@@H](CC(C)C)NC)C(=O)N[C@@H](CC(N)=O)C(=O)N[C@H]5C(=O)N[C@H]3C(=O)N[C@H](C(=O)N[C@H](C(=O)O)c5cc(O)c(CNCP(=O)(O)O)c(O)c5-c5cc3ccc5O)[C@H](O)c3ccc(c(Cl)c3)O4)O[C@H](CO)[C@@H](O)[C@@H]2O)O[C@@H](C)[C@H]1O` [Telavancin] was tested, and the “MIC Values MRSA 1556” value [1] was 0.063 µg/mL (≈ 0.0359 µM), the “MIC Values MSSA 29213” value [2] was 0.063 µg/mL (≈ 0.0359 µM) and the “RV40 activity as compared to Comparator” value ([3]; MRSA strains (Table 5), […]) was 6 ×. For the same molecule, the MIC ([3]; S. aureus MMX 100 ATCC 29213, MSSA (quality control)) was 0.06 µg/mL (≈ 0.0342 µM), the MIC ([3]; S. aureus MMX 1723, Mu50, VISA) was 0.5 µg/mL (≈ 0.285 µM) and the MIC ([3]; S. aureus MMX 2010, MRSA) was 0.06 µg/mL (≈ 0.0342 µM). The MIC ([3]; S. aureus MMX 2011 ATCC BAA-1756, MRSA) was 0.06 µg/mL (≈ 0.0342 µM), the MIC ([3]; S. aureus MMX 2124, VISA, DaptoNS) was 0.5 µg/mL (≈ 0.285 µM) and the MIC ([3]; S. aureus MMX 2490, MSSA) was 0.12 µg/mL (≈ 0.0684 µM). The MIC ([3]; S. aureus MMX 3982, MRSA) was 0.06 µg/mL (≈ 0.0342 µM), the MIC ([3]; S. aureus MMX 4658, VISA) was 0.12 µg/mL (≈ 0.0684 µM) and the MIC ([3]; S. aureus MMX 4660, VISA) was 0.12 µg/mL (≈ 0.0684 µM). For the same molecule, the MIC ([3]; S. aureus MMX 4665, hVISA) was 0.25 µg/mL (≈ 0.142 µM), the MIC ([3]; S. aureus MMX 4675 ATCC BAA-1556, MRSA) was 0.06 µg/mL (≈ 0.0342 µM) and the MIC ([3]; S. aureus MMX 5717 ATCC 33591, MRSA) was 0.06 µg/mL (≈ 0.0342 µM). It also gave an MIC ([3]; S. aureus MMX 5985, MRSA) of 0.06 µg/mL (≈ 0.0342 µM), an MIC ([3]; S. aureus MMX 5989, Mu3, hVISA) of 0.12 µg/mL (≈ 0.0684 µM) and an MIC ([3]; S. aureus MMX 5999, MRSA) of 0.06 µg/mL (≈ 0.0342 µM). The MIC ([3]; S. aureus MMX 7899, MRSA) was 0.06 µg/mL (≈ 0.0342 µM), the MIC ([3]; S. aureus MMX 7900, MRSA) was 0.06 µg/mL (≈ 0.0342 µM) and the MIC ([3]; S. aureus MMX 7901, MRSA) was 0.03 µg/mL (≈ 0.0171 µM). It also gave an MIC ([3]; S. aureus MMX 7902, MRSA) of 0.06 µg/mL (≈ 0.0342 µM), an MIC ([3]; S. aureus MMX 7903, MRSA) of 0.06 µg/mL (≈ 0.0342 µM) and an MIC ([3]; S. aureus MMX 7907, MSSA) of 0.06 µg/mL (≈ 0.0342 µM). It also gave an MIC ([3]; S. aureus MMX 7908, MSSA) of 0.12 µg/mL (≈ 0.0684 µM), an MIC ([4]; E. faecalis MMX 101 ATCC 29212, VSE) of 0.12 µg/mL (≈ 0.0684 µM) and an MIC ([4]; E. faecalis MMX 1086, VanA VRE) of 1 µg/mL (≈ 0.57 µM). The MIC ([4]; E. faecalis MMX 4176) was 0.25 µg/mL (≈ 0.142 µM), the MIC ([4]; E. faecium MMX 173, VanB VRE) was 0.06 µg/mL (≈ 0.0342 µM) and the MIC ([4]; E. faecium MMX 851, VanA VRE) was 2 µg/mL (≈ 1.14 µM). For the same molecule, the MIC ([4]; E. faecium MMX 4204) was 0.06 µg/mL (≈ 0.0342 µM), the “activity against vancomycin-resistant enterococci (VRE)” value ([4]; VRE, MIC values elevated relative to vancomycin-susceptible enterococci (VSE)) was “potent activity” and the MIC ([5]; S. agalactiae MMX 427 ATCC 13813) was 0.06 µg/mL (≈ 0.0342 µM). The MIC ([5]; S. agalactiae MMX 4088) was 0.06 µg/mL (≈ 0.0342 µM), the MIC ([5]; S. agalactiae MMX 4115, erm^R) was 0.06 µg/mL (≈ 0.0342 µM) and the MIC ([5]; S. anginosus (AGS) MMX 1201 ATCC 33397) was 0.06 µg/mL (≈ 0.0342 µM). The MIC ([5]; S. constellatus (AGS) MMX 5677) was 0.03 µg/mL (≈ 0.0171 µM), the MIC ([5]; S. dysgalactiae MMX 5121) was 0.12 µg/mL (≈ 0.0684 µM) and the MIC ([5]; S. dysgalactiae MMX 5123) was 0.25 µg/mL (≈ 0.142 µM). The MIC ([5]; S. dysgalactiae MMX 5124) was 0.03 µg/mL (≈ 0.0171 µM), the MIC ([5]; S. mitis (MGS) MMX 1205 ATCC 49456) was 0.06 µg/mL (≈ 0.0342 µM) and the MIC ([5]; S. oralis (MGS) MMX 5821) was 0.06 µg/mL (≈ 0.0342 µM). For the same molecule, the MIC ([5]; S. pneumoniae MMX 432, PRSP) was 0.03 µg/mL (≈ 0.0171 µM), the MIC ([5]; S. pneumoniae MMX 747) was 0.015 µg/mL (≈ 0.00854 µM) and the MIC ([5]; S. pneumoniae MMX 1195 ATCC 49619, PISP) was 0.03 µg/mL (≈ 0.0171 µM). The MIC ([5]; S. pyogenes MMX 404 ATCC 19615) was 0.06 µg/mL (≈ 0.0342 µM), the MIC ([5]; S. pyogenes MMX 946, ermR) was 0.06 µg/mL (≈ 0.0342 µM) and the MIC ([5]; S. pyogenes MMX 8778) was 0.06 µg/mL (≈ 0.0342 µM). It also gave an MIC ([6]; C. difficile MMX 4381 ATCC 700057, toxinAB-negative) of 0.12 µg/mL (≈ 0.0684 µM), an MIC ([6]; C. difficile MMX 4994 ATCC BAA-1805, ribotype 027) of 0.12 µg/mL (≈ 0.0684 µM) and an MIC ([6]; C. difficile MMX 5668 ATCC BAA-1870, NAP1/027) of 0.12 µg/mL (≈ 0.0684 µM). It also gave an MIC ([7]; S. epidermidis (CoNS) MMX 762, MRSE) of 0.12 µg/mL (≈ 0.0684 µM), an MIC ([7]; S. epidermidis (CoNS) MMX 5145, MRSE) of 0.03 µg/mL (≈ 0.0171 µM) and an MIC [8] of 0.06 µg/mL (≈ 0.0342 µM). It also gave an MIC [9] of 0.06 µg/mL (≈ 0.0342 µM), an MIC [10] of 0.06 µg/mL (≈ 0.0342 µM) and an MIC [11] of 0.015 µg/mL (≈ 0.00854 µM). The MIC [12] was 0.06 µg/mL (≈ 0.0342 µM), the MIC [13] was 0.03 µg/mL (≈ 0.0171 µM) and the MIC ([14]; P. acnes MMX 7942 ATCC 6919) was 0.03 µg/mL (≈ 0.0171 µM). It also gave an MIC ([14]; P. acnes MMX 7946 ATCC 11827) of 0.015 µg/mL (≈ 0.00854 µM).

Source: US20200368312A1 (priority 2017, published 2020)
